Test results: ChEMBL document CHEMBL5260832, “Hepatoprotective natural triterpenoids” (Eur J Med Chem, 2018)

Key:
[1] = tested on: Hepatocyte; assay: Hepatoprotective activity against D-GaIN-induced toxicity in mouse hepatocyte relative to control; assay type: functional, cell-based
[2] = tested on: Mus musculus; assay: Hepatoprotective activity in mouse model of D-GaIN/LPS-induced liver injury assessed as inhibition of sAST secretion at 100 mg/kg, po relative to control; assay type: functional
[3] = tested on: Mus musculus; assay: Hepatoprotective activity in mouse model of D-GaIN/LPS-induced liver injury assessed as inhibition of sALT level secretion at 100 mg/kg, po relative to control; assay type: functional
[4] = tested on: Hepatocyte; assay: Hepatoprotective activity against D-GaIN/TNFalpha-induced cell death in mouse hepatocyte at 100 uM; assay type: functional, cell-based
[5] = tested on: Rattus norvegicus; assay: Hepatoprotective activity in GaIN-induced rat model of liver injury assessed as reduction in ALT level at 4 mg/kg relative to control; assay type: functional; design: scale not given: the % may be the effect or the level left
[6] = species on record: Mus musculus; assay: Hepatoprotective activity against D-GaIN-induced liver injury mouse model assessed as cell death with increasing cell survival rates at 10 uM relative to control; assay type: functional
[7] = tested on: L02; assay: Protection against D-GalN-induced cell damage in human L02 cells […] assessed as reduction in cell viability […]; assay type: functional, cell-based
[8] = tested on: Hepatocyte; assay: Hepatoprotective activity against CCl4/GaIN-induced cytotoxicity in rat hepatocytes assessed as decrease in GPT level at 1.0 ug/mL relative to control; assay type: functional; design: scale not given: the % may be the effect or the level left; settings: dose 1 µg/ml
[9] = tested on: Hepatocyte; assay: Protection against CCL4-induced rat hepatocyte toxicity assessed as reduction in ALT level at 90 uM relative to control; assay type: functional; design: scale not given: the % may be the effect or the level left
[10] = tested on: Hepatocyte; assay: Hepatoprotective activity against CCL4-induced rat hepatocyte toxicity assessed as decrease in GOT level at 3.33 mg/mL preincubated for 30 mins followed by CCL4 addition and measured after 180 mins by colorimetric method; assay type: functional; settings: time 210 min, 3.5 h
[11] = tested on: Hepatocyte; assay: Hepatoprotective activity against CCL4-induced rat hepatocyte toxicity assessed as decrease in GPT level at 3.33 mg/mL preincubated for 30 mins followed by CCL4 addition and measured after 180 mins by colorimetric method; assay type: functional; settings: time 210 min, 3.5 h
[12] = tested on: Hepatocyte; assay: Hepatoprotective activity against CCL4-induced rat hepatocyte toxicity assessed as decrease in ALP level at 3.33 mg/mL preincubated for 30 mins followed by CCL4 addition and measured after 180 mins by colorimetric method; assay type: functional; settings: time 210 min, 3.5 h
[13] = tested on: Hepatocyte; assay: Hepatoprotective activity against D-GaIN/TNFalpha -induced cell death in mouse hepatocyte assessed as inhibition at 50 uM relative to control; assay type: functional; design: scale not given: the % may be the effect or the level left
[14] = tested on: Mus musculus; assay: Hepatoprotective activity against CCl4-induced liver injury mouse model assessed as reduction in ALT at 20 ug/mL, ip relative to control (reference value: 13.23 IU/L); assay type: functional; settings: dose 20 µg/ml
[15] = tested on: Mus musculus; assay: Hepatoprotective activity against CCl4-induced liver injury mouse model assessed as reduction in AST at 20 ug/mL, ip relative to control (reference value: 9.27 IU/L); assay type: functional; settings: dose 20 µg/ml
[16] = tested on: Mus musculus; assay: Hepatoprotective activity against CCl4-induced liver injury mouse model assessed as reduction in MDA level at 20 ug/mL, ip relative to control (reference value: 9.27 IU/L); assay type: functional; settings: dose 20 µg/ml
[17] = tested on: Mus musculus; assay: Hepatoprotective activity against CCl4-induced liver injury mouse model assessed as increase in SOD level at 20 ug/mL, ip relative to control (reference value: 5.89 IU/L); assay type: functional; settings: dose 20 µg/ml
[18] = tested on: Hepatocyte; assay: Hepatoprotective activity against D-GaIN/TNFalpha-induced cell death in mouse hepatocytes at 50 uM assessed as inhibition of cell death relative to control; assay type: functional; design: scale not given: the % may be the effect or the level left
[19] = tested on: L02; assay: Protection against D-GalN-induced toxicity in L02 cells […] assessed as reduction in cell growth relative to control; assay type: functional, Homo sapiens; design: scale not given: the % may be the effect or the level left
[20] = tested on: L02; assay: Protection against D-GalN-induced toxicity in L02 cells […] assessed as reduction in cell growth at 6.25 microg/ml relative to control; assay type: functional, Homo sapiens; design: scale not given: the % may be the effect or the level left; settings: dose 6.25 µg/ml
[21] = tested on: Huh-7; assay: Hepatoprotective activity against CCL4-induced mouse model in human Huh-7 cells assessed as decrease in ALT level at 100 ug/mL; assay type: functional; settings: dose 100 µg/ml
[22] = Cytotoxicity against human HepG2 cells assessed as reduction in cell viability by SRB assay; assay type: toxicity, cell-based
[23] = tested on: HepG2; assay: Cytoprotective activity against t-BHP induced cell death in human HepG2 cells assessed as cell survival rate at 10 uM relative to control; assay type: functional
[24] = tested on: Hepatocyte; assay: Hepatoprotective activity against D-GaIN/TNFalpha-induced cell death in mouse hepatocyte at 100 uM relative to control; assay type: functional, cell-based; settings: Mus musculus, Hepatocyte
[25] = tested on: Mus musculus; assay: Hepatoprotective activity against D-GaIN/CCl4 induced liver injury mouse model assessed as reduction in GPT level at 1.0 microg/ml, iv relative to control; assay type: functional; design: scale not given: the % may be the effect or the level left; settings: dose 1 µg/ml

C[C@@H]1CC[C@]2(C(=O)O[C@@H]3O[C@H](CO)[C@@H](O)[C@H](O)[C@H]3O)CC[C@]3(C)C(=CC[C@@H]4[C@@]5(C)C[C@@H](O)[C@H](O)C(C)(C)[C@@H]5CC[C@]43C)[C@@H]2[C@]1(C)O
IC50 [1]: 35.5 µM | inhibition in vivo at 100 mg/kg [2]: 65.2% | inhibition in vivo at 100 mg/kg [3]: 71.1% | IC50 [4]: 55.7 µM

COC(=O)[C@]12CC[C@@H](C)[C@H](C)[C@H]1C1=CC[C@@H]3[C@@]4(C)C[C@@H](OC(C)=O)C(=O)[C@@](C)(C=O)[C@@H]4CC[C@@]3(C)[C@]1(C)CC2
Activity [5]: 66.4%

CC(=O)O[C@H](C/C=C(/C)C(=O)O)[C@@H](C)[C@H]1CCC2(C)[C@@H]3CC[C@H]4C(C)(C)C(=O)CC[C@@]45C[C@@]35CC[C@]12C (some centres not stated)
Activity [6]: 30.8%

CC(=O)O[C@H]1[C@@H]2O[C@@]3(C(C)(C)O)CC[C@](C)(O3)C2[C@@]2(CO)CC[C@@]34C[C@@]35CC[C@H](O[C@@H]3OC[C@@H](O)[C@H](O)[C@H]3O)C(C)(C)C5CC[C@H]4[C@]12C (some centres not stated)
EC50 [7]: 74.1 µM

CC1(C)CC[C@]2(C(=O)O[C@@H]3O[C@H](CO)[C@@H](O)[C@H](O)[C@H]3O)CC[C@]3(C)C(=CC[C@@H]4[C@@]5(C)CC[C@H](O[C@@H]6O[C@H](C(=O)O)[C@@H](O)[C@H](O)[C@H]6O[C@@H]6O[C@H](CO)[C@@H](O)[C@H](O)[C@H]6O)C(C)(C)[C@@H]5CC[C@]43C)[C@@H]2C1 [GINSENOSIDE R0]
Activity [8]: 42%

C[C@@H]1O[C@@H](O[C@H]2[C@H](O[C@H]3CC[C@]4(C)[C@H]5CC=C6[C@@H]7CC(C)(C)CC[C@]7(C(=O)O[C@@H]7O[C@H](CO)[C@@H](O[C@@H]8O[C@H](CO)[C@@H](O)[C@H](O)[C@H]8O)[C@H](O)[C@H]7O[C@@H]7O[C@H](CO)[C@@H](O)[C@H](O)[C@H]7O)[C@H](O)C[C@@]6(C)[C@]5(C)CC[C@H]4C3(C)C)O[C@H](CO)[C@@H](O)[C@@H]2O)[C@H](O)[C@H](O)[C@H]1O
Activity [9]: 4%

CC1=CC[C@H]([C@@H](C)[C@H]2CC[C@@]3(C)[C@@H]4CC[C@@H](C(C)(C)O)[C@@]5(CCC(=O)O)C[C@@]45CC[C@@]23C)OC1=O
Activity [6]: 35.7%

C[C@@H]1CC[C@]2(C(=O)O[C@@H]3O[C@H](CO)[C@@H](O)[C@H](O)[C@H]3O)CC[C@]3(C)C(=CC[C@@H]4[C@@]5(C)C[C@@H](O)[C@@H](O)C(C)(C)[C@@H]5CC[C@]43C)[C@@H]2[C@]1(C)O
IC50 [1]: 14.1 µM | inhibition in vivo at 100 mg/kg [2]: 59.7% | inhibition in vivo at 100 mg/kg [3]: 57.2%

CC(=O)O[C@H]1CC[C@]2(C)[C@H]3CC=C4[C@@H]5CC(C)(C)CC[C@]5(C(=O)O)CC[C@@]4(C)[C@]3(C)CC[C@H]2C1(C)C [ACETYL OLEANOLIC ACID]
Activity [10]: 27.8 IU/L | Activity [11]: 17.5 IU/L | Activity [12]: 16.1 IU/L

C=C(C)[C@@H]1CC[C@]2(C(=O)O[C@@H]3O[C@H](CO)[C@@H](O)[C@H](O)[C@H]3O)CC[C@]3(C)[C@H](CC[C@@H]4[C@@]5(C)C[C@@H](O)[C@H](O)[C@](C)(CO)[C@@H]5CC[C@]43C)[C@@H]12
Activity [13]: 40.9%

C[C@@H]1CC[C@]2(C(=O)O)CC[C@]3(C)C(=CC[C@@H]4[C@@]5(C)[C@H](O)[C@@H](O)[C@@H](O)C(C)(C)[C@@H]5CC[C@]43C)[C@@H]2[C@]1(C)O
Activity [14]: 4.75 IU/L | Activity [15]: 4.24 IU/L | Activity [16]: 3.84 nmol/mL | Activity [17]: 21.9 U/ml

C[C@@H]1O[C@@H](O[C@H]2[C@H](O[C@H]3CC[C@]4(C)[C@H]5CC=C6[C@@H]7CC(C)(C)CC[C@]7(C(=O)O[C@@H]7O[C@H](CO)[C@@H](O)[C@H](O)[C@H]7O[C@@H]7O[C@H](CO)[C@@H](O)[C@H](O)[C@H]7O)[C@H](O)C[C@@]6(C)[C@]5(C)CC[C@H]4C3(C)C)O[C@H](CO)[C@@H](O)[C@@H]2O)[C@H](O)[C@H](O)[C@H]1O
Activity [9]: 79%

CC1(C)CC[C@]2(C(=O)O[C@@H]3O[C@H](CO)[C@@H](O)[C@H](O)[C@H]3O)CC[C@]3(C)C(=CC[C@@H]4[C@@]5(C)CC[C@H](O[C@@H]6O[C@H](C(=O)O)[C@@H](O)[C@H](O)[C@H]6O[C@@H]6OC[C@H](O)[C@H](O)[C@H]6O)C(C)(C)[C@@H]5CC[C@]43C)[C@@H]2C1
Activity [8]: 28%

COC(=O)[C@]12CC[C@@H](C)[C@H](C)[C@H]1C1=CC[C@@H]3[C@@]4(C)C[C@@H](OC)C(=O)[C@@](C)(C=O)[C@@H]4CC[C@@]3(C)[C@]1(C)CC2
Activity [5]: 52.3%

CC1=C(C)[C@H]2C3=CC[C@@H]4[C@@]5(C)C[C@@H](O)[C@H](O)[C@@](C)(CO)[C@@H]5CC[C@@]4(C)[C@]3(C)CC[C@@]2(C(=O)O[C@@H]2O[C@H](CO)[C@@H](O)[C@H](O)[C@H]2O)CC1
IC50 [4]: 33.6 µM | Activity [18]: 8.3%

CC(C)[C@]1(CO[C@@H]2O[C@H](CO)[C@@H](O)[C@H](O)[C@H]2O)CC[C@@H]([C@H]2[C@H](O)C[C@]3(C)[C@@H]2CC[C@@H]2[C@@]4(C)CC[C@H](O[C@@H]5O[C@H](CO)[C@@H](O)[C@H](O)[C@H]5O[C@@H]5O[C@H](CO)[C@@H](O)[C@H](O)[C@H]5O)C(C)(C)[C@@H]4CC[C@]23C)O1
Activity [19]: 28.2% | Activity [20]: 14.7%

CC1(C)CC[C@]2(CO)CC[C@]3(C)C(=CC[C@@H]4[C@@]5(C)CC[C@H](O)C(C)(C)[C@@H]5CC[C@]43C)[C@@H]2C1 [ERYTHRODIOL]
Activity [21]: 40.2 U/ml

C=C(C)[C@@H]1CC[C@]2(C(=O)O[C@@H]3O[C@H](CO)[C@@H](O)[C@H](O)[C@H]3O)CC[C@]3(C)[C@H](CC[C@@H]4[C@@]5(C)C[C@@H](O)[C@H](O)C(C)(C)[C@@H]5CC[C@]43C)[C@@H]12
Activity [13]: 37.6%

COc1cc([C@H]2Oc3cc([C@H]4Oc5cc(O)cc(O)c5C(=O)[C@@H]4O)ccc3O[C@@H]2CO)ccc1O [SILYBIN A]
EC50 [22]: 75.7 µM | Activity [23]: 52.5% | IC50 [24]: 29.9 µM | IC50 [1]: 38.8 µM | IC50 [4]: 33.6 µM | Activity [18]: 61.2% | Activity [13]: 61.2%

CO[C@@H]1C=C2[C@@H]3CC(C)(C)C(=O)C[C@]3(C(=O)O)CC[C@@]2(C)[C@]2(C)CCC3C(C)(C)C(=O)CC[C@]3(C)[C@@H]12 (some centres not stated)
Activity [25]: 48%

CC(=O)O[C@H]1[C@@H]2O[C@@]3(C(C)(C)O)CC[C@](C)(O3)C2[C@@]2(CO)CC[C@@]34C[C@@]35CC[C@H](O)C(C)(C)C5CC[C@H]4[C@]12C (some centres not stated)
EC50 [7]: 55.9 µM

CC1=C2C3=CC[C@@H]4[C@@]5(C)C[C@@H](O)[C@H](O)[C@@](C)(CO)[C@@H]5[C@H](O)C[C@@]4(C)[C@]3(C)CC[C@@]2(C(=O)O[C@@H]2O[C@H](CO)[C@@H](O)[C@H](O)[C@H]2O)CC[C@H]1C [QUADRANOSIDE V]
IC50 [4]: 30.2 µM | Activity [18]: 67.5%

CC(=O)C[C@@H](C)[C@H]1CC[C@@]2(C)[C@@H]3C(=O)C=C4[C@@H](CC[C@@H](O)C4(C)C)[C@]3(C)CC[C@]12C
Activity [23]: 56.9%
